Columns and labels:
[1] = target: Protein-tyrosine kinase 6 (Homo sapiens) (UniProt Q13882); settings: Compound concentration 1000.0 nM
[2] = system: Receptor-type tyrosine-protein kinase FLT3 (Homo sapiens), P36888 [UNDEFINED MUTATION]; settings: Compound concentration 1000.0 nM
[3] = system: Receptor-type tyrosine-protein kinase FLT3 (Homo sapiens), P36888 [D835H]; settings: Compound concentration 1000.0 nM
[4] = target: G protein-coupled receptor kinase 3 (Homo sapiens) (UniProt P35626); settings: Compound concentration 1000.0 nM
[5] = target: Serine/threonine-protein kinase Nek1 (Homo sapiens) (UniProt Q96PY6); settings: Compound concentration 1000.0 nM
[6] = target: Cyclin-dependent kinase 17 (Homo sapiens) (UniProt Q00537); settings: Compound concentration 1000.0 nM
[7] = target: Cyclin-dependent kinase 2 (Homo sapiens) (UniProt P24941); settings: Compound concentration 1000.0 nM
[8] = target: Tyrosine-protein kinase JAK1 (Homo sapiens) (UniProt P23458); settings: Compound concentration 1000.0 nM
[9] = target: Serine/threonine-protein kinase TAO3 (Homo sapiens) (UniProt Q9H2K8); settings: Compound concentration 1000.0 nM
[10] = target: Hepatocyte growth factor receptor (Homo sapiens) (UniProt P08581); settings: Compound concentration 1000.0 nM
[11] = system: Fibroblast growth factor receptor 3 (Homo sapiens), P22607 [G697C]; settings: Compound concentration 1000.0 nM
[12] = target: Mitogen-activated protein kinase kinase kinase 4 (Homo sapiens) (UniProt Q9Y6R4); settings: Compound concentration 1000.0 nM
[13] = target: Casein kinase I isoform delta (Homo sapiens) (UniProt P48730); settings: Compound concentration 1000.0 nM
[14] = system: Proto-oncogene tyrosine-protein kinase receptor Ret (Homo sapiens), P07949 [V804M]; settings: Compound concentration 1000.0 nM
[15] = target: Mitogen-activated protein kinase kinase kinase kinase 5 (Homo sapiens) (UniProt Q9Y4K4); settings: Compound concentration 1000.0 nM
[16] = target: Calcium/calmodulin-dependent protein kinase type II subunit alpha (Homo sapiens) (UniProt Q9UQM7); settings: Compound concentration 1000.0 nM
Sequence of Calcium/calmodulin-dependent protein kinase type II subunit alpha (Homo sapiens) (Q9UQM7 whole entry): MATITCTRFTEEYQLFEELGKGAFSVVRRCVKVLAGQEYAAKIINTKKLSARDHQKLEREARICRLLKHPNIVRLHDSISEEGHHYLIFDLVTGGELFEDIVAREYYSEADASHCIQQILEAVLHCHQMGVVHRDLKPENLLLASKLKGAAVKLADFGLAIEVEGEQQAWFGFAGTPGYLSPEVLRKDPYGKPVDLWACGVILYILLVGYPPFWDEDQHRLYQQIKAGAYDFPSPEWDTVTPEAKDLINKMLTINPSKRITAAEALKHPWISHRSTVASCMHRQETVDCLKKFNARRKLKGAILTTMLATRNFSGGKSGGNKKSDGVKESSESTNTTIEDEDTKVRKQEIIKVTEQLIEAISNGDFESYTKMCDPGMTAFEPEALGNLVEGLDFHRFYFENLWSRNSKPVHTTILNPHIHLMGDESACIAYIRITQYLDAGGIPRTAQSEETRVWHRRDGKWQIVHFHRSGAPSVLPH

[17] = target: Ribosomal protein S6 kinase alpha-3 (Homo sapiens) (UniProt P51812); settings: Compound concentration 1000.0 nM
Sequence of Ribosomal protein S6 kinase alpha-3 (Homo sapiens) (P51812 whole entry): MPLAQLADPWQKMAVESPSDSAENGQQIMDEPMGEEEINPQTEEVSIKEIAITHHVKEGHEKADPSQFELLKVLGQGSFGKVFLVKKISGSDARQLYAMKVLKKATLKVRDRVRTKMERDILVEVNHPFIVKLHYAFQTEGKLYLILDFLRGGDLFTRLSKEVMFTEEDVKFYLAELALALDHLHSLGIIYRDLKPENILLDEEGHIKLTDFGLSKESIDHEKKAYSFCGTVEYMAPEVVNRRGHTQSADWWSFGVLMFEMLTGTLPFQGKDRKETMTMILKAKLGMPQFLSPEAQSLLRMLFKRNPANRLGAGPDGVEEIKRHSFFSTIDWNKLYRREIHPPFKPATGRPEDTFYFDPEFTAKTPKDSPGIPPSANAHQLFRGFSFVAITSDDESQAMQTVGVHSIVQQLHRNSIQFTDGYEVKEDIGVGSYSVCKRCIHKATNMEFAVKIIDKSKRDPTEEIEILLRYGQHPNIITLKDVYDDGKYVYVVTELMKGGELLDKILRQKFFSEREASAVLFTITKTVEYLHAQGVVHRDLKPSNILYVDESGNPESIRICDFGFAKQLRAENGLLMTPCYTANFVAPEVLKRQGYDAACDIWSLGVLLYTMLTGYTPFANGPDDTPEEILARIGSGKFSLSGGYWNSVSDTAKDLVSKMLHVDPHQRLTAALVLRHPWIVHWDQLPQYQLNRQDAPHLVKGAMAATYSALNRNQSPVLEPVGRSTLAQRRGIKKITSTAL

[18] = target: Aurora kinase A (Homo sapiens) (UniProt O14965); settings: Compound concentration 1000.0 nM
[19] = target: Serine/threonine-protein kinase STK11 (Homo sapiens) (UniProt Q15831); settings: Compound concentration 1000.0 nM
[20] = target: Mitogen-activated protein kinase kinase kinase 12 (Homo sapiens) (UniProt Q12852); settings: Compound concentration 1000.0 nM
[21] = target: Kappa-type opioid receptor (Homo sapiens) (UniProt P41145); settings: Compound concentration 10.0 uM
[22] = target: Mitogen-activated protein kinase kinase kinase 10 (Homo sapiens) (UniProt Q02779); settings: Compound concentration 1000.0 nM
Sequence of Mitogen-activated protein kinase kinase kinase 10 (Homo sapiens) (Q02779 whole entry, looked up): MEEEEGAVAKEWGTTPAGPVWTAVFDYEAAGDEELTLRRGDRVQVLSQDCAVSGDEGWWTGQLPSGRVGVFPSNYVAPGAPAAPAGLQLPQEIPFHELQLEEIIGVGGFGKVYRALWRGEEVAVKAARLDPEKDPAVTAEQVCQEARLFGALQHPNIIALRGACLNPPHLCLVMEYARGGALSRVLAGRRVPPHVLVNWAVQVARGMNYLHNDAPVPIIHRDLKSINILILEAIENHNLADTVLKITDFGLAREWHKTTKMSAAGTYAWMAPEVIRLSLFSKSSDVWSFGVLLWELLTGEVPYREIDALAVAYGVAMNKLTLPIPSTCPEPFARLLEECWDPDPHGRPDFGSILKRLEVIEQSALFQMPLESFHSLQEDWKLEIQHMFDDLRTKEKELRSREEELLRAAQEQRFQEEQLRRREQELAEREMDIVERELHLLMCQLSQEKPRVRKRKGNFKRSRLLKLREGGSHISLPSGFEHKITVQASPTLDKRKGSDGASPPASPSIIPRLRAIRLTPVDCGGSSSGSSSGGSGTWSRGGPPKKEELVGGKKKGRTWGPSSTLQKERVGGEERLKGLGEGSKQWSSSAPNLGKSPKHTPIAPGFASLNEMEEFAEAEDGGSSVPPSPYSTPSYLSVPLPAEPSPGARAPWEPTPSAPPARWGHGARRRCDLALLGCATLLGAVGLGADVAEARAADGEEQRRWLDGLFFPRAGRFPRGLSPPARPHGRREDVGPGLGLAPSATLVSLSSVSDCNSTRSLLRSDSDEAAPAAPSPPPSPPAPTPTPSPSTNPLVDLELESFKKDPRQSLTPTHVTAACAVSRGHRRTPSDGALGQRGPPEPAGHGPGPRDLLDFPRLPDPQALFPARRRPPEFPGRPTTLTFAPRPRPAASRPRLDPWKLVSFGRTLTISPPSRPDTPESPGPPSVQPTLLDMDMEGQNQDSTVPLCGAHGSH

[23] = target: Protein kinase C iota type (Homo sapiens) (UniProt P41743); settings: Compound concentration 1000.0 nM
Sequence of Protein kinase C iota type (Homo sapiens) (P41743 whole entry): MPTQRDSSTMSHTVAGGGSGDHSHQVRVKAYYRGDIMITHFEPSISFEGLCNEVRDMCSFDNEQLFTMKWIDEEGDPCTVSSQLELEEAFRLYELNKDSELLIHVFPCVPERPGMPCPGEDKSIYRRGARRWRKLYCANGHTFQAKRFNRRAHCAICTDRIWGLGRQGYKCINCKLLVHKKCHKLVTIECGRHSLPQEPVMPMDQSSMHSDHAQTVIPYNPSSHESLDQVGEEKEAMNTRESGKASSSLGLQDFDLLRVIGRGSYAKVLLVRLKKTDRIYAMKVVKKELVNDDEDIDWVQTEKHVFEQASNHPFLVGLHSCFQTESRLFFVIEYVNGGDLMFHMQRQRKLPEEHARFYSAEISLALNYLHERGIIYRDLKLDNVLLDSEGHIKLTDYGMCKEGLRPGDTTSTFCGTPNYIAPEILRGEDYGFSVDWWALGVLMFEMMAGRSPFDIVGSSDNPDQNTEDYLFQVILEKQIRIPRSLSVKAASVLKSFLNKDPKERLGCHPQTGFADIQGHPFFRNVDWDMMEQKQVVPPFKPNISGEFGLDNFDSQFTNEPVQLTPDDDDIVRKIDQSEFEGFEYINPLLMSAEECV

[24] = target: Protein kinase C epsilon type (Homo sapiens) (UniProt Q02156); settings: Compound concentration 1000.0 nM
[25] = target: Proto-oncogene tyrosine-protein kinase receptor Ret (Homo sapiens) (UniProt P07949); settings: Compound concentration 1000.0 nM
[26] = target: Phosphatidylinositol 4-phosphate 5-kinase type-1 alpha (Homo sapiens) (UniProt Q99755); settings: Compound concentration 1000.0 nM
Sequence of Phosphatidylinositol 4-phosphate 5-kinase type-1 alpha (Homo sapiens) (Q99755 whole entry): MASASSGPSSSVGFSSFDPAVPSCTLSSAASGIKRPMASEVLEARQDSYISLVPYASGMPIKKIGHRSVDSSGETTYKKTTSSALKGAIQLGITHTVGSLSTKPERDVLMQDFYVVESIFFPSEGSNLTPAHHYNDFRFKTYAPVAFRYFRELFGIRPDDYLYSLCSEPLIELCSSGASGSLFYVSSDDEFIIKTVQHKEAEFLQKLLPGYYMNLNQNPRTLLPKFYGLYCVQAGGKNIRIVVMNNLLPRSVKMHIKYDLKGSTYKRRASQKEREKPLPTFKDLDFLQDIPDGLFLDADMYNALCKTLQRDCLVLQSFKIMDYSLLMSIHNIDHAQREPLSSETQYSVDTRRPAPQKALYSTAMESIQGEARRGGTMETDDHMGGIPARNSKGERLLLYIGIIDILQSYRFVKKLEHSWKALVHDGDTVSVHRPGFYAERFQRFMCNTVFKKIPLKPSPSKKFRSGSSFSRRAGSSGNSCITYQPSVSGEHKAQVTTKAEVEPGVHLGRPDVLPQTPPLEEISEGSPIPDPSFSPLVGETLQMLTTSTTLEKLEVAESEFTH

[27] = target: Calcium/calmodulin-dependent protein kinase type 1B (Homo sapiens) (UniProt Q6P2M8); settings: Compound concentration 1000.0 nM
Sequence of Calcium/calmodulin-dependent protein kinase type 1B (Homo sapiens) (Q6P2M8 whole entry, canonical isoform): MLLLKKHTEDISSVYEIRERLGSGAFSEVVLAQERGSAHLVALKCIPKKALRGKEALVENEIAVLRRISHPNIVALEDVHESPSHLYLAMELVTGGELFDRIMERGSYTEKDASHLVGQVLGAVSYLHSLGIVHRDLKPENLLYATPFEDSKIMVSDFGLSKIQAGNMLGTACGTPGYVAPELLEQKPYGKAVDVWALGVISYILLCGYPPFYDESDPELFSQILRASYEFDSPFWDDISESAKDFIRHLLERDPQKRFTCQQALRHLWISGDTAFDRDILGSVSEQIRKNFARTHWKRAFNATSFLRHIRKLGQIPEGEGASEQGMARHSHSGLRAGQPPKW

[28] = target: Phosphatidylinositol 4,5-bisphosphate 3-kinase catalytic subunit delta isoform (Homo sapiens) (UniProt O00329); settings: Compound concentration 1000.0 nM
[29] = target: Histamine H3 receptor (Homo sapiens) (UniProt Q9Y5N1); settings: Compound concentration 10.0 uM
[30] = target: Serine/threonine-protein kinase 4 (Homo sapiens) (UniProt Q13043); settings: Compound concentration 1000.0 nM
Sequence of Serine/threonine-protein kinase 4 (Homo sapiens) (Q13043 whole entry): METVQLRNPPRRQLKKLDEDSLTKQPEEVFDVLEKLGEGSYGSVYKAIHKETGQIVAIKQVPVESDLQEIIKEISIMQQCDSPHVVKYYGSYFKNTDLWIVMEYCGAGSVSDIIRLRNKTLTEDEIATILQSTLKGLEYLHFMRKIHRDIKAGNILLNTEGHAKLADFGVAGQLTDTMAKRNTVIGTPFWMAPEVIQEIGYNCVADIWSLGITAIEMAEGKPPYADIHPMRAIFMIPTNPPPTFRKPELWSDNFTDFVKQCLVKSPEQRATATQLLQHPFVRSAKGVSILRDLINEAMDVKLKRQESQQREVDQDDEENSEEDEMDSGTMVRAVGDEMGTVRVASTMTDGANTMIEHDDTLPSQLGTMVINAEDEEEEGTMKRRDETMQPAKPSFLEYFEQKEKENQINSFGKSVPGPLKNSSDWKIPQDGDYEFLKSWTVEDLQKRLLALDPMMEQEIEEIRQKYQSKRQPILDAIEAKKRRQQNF

[31] = target: Tyrosine-protein kinase CSK (Homo sapiens) (UniProt P41240); settings: Compound concentration 1000.0 nM
[32] = target: Dual specificity protein kinase TTK (Homo sapiens) (UniProt P33981); settings: Compound concentration 1000.0 nM
[33] = target: Serine/threonine-protein kinase Nek9 (Homo sapiens) (UniProt Q8TD19); settings: Compound concentration 1000.0 nM
[34] = target: Mitogen-activated protein kinase 9 (Homo sapiens) (UniProt P45984); settings: Compound concentration 1000.0 nM
[35] = target: Interleukin-1 receptor-associated kinase 3 (Homo sapiens) (UniProt Q9Y616); settings: Compound concentration 1000.0 nM
[36] = system: ALK tyrosine kinase receptor (Homo sapiens), Q9UM73 [L1196M]; settings: Compound concentration 1000.0 nM
[37] = target: Mitogen-activated protein kinase kinase kinase kinase 2 (Homo sapiens) (UniProt Q12851); settings: Compound concentration 1000.0 nM
[38] = target: Protein kinase C eta type (Homo sapiens) (UniProt P24723); settings: Compound concentration 1000.0 nM
[39] = target: Mitogen-activated protein kinase kinase kinase kinase 4 (Homo sapiens) (UniProt O95819); settings: Compound concentration 1000.0 nM
[40] = target: Serine/threonine-protein kinase pim-2 (Homo sapiens) (UniProt Q9P1W9); settings: Compound concentration 1000.0 nM
[41] = target: Receptor-interacting serine/threonine-protein kinase 1 (Homo sapiens) (UniProt Q13546); settings: Compound concentration 1000.0 nM
[42] = target: Beta-3 adrenergic receptor (Homo sapiens) (UniProt P13945); settings: Compound concentration 10.0 uM
[43] = target: Serine/threonine-protein kinase SIK1 (Homo sapiens) (UniProt P57059); settings: Compound concentration 1000.0 nM
[44] = target: Serine/threonine-protein kinase/endoribonuclease IRE1 (Homo sapiens) (UniProt O75460); settings: Compound concentration 1000.0 nM
[45] = target: Tyrosine-protein kinase ITK/TSK (Homo sapiens) (UniProt Q08881); settings: Compound concentration 1000.0 nM
Sequence of Tyrosine-protein kinase ITK/TSK (Homo sapiens) (Q08881 whole entry): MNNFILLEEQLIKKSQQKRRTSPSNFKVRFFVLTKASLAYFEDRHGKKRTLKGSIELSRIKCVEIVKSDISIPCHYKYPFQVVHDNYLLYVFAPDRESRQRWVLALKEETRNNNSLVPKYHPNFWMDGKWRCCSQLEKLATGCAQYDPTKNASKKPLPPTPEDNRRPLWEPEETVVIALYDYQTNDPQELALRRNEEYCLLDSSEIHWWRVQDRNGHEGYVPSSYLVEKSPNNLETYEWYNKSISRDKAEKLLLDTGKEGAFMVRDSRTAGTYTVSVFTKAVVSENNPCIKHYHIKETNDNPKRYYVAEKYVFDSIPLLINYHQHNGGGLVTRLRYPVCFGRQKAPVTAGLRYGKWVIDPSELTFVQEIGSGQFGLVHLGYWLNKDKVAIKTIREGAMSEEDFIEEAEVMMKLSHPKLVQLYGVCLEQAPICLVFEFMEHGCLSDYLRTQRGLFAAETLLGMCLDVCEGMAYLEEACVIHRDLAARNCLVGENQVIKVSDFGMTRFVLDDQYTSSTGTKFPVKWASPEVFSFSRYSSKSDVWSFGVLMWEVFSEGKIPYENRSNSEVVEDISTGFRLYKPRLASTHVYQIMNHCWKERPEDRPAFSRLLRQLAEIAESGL

`CCC(=O)N[C@H]1CC[C@@H](C(=O)N(C)c2ccc(-c3nc4ccccc4o3)cc2)C1` [BI 99179] gave a residual activity [1] of 100%, a residual activity [2] of 91% and a residual activity [3] of 95%. For the same compound, the residual activity [4] was 80%, the residual activity [5] was 100% and the residual activity [6] was 100%. It also gave a residual activity [7] of 100%, a residual activity [8] of 77% and a residual activity [9] of 70%. It also gave a residual activity [10] of 100%, a residual activity [11] of 100% and a residual activity [12] of 100%. The residual activity [13] was 96%, the residual activity [14] was 100% and the residual activity [15] was 100%. The residual activity [16] was 94%, the residual activity [17] was 87% and the residual activity [18] was 43%. It also gave a residual activity [19] of 100%, a residual activity [20] of 100% and an inhibition [21] of -6.54%. For the same compound, the residual activity [22] was 91%, the residual activity [23] was 92% and the residual activity [24] was 90%. For the same compound, the residual activity [25] was 92%, the residual activity [26] was 100% and the residual activity [27] was 92%. The residual activity [28] was 100%, the inhibition [29] was -8.17% and the residual activity [30] was 100%. The residual activity [31] was 100%, the residual activity [32] was 100% and the residual activity [33] was 99%. It also gave a residual activity [34] of 79%, a residual activity [35] of 85% and a residual activity [36] of 93%. The residual activity [37] was 96%, the residual activity [38] was 96% and the residual activity [39] was 91%. For the same compound, the residual activity [40] was 100%, the residual activity [41] was 100% and the inhibition [42] was 34.9%. The residual activity [43] was 89%, the residual activity [44] was 91% and the residual activity [45] was 100%.

With `CCC(=O)N[C@@H]1CC[C@H](C(=O)N(C)c2ccc(-c3nc4ccccc4o3)cc2)C1` [BI 99990] the residual activity [1] was 90%, the residual activity [2] was 100% and the residual activity [3] was 100%. The residual activity [4] was 100%, the residual activity [5] was 100% and the residual activity [6] was 100%. The residual activity [7] was 100%, the residual activity [8] was 88% and the residual activity [9] was 87%. The residual activity [10] was 100%, the residual activity [11] was 88% and the residual activity [12] was 83%. The residual activity [13] was 100%, the residual activity [14] was 100% and the residual activity [15] was 91%. The residual activity [16] was 100%, the residual activity [17] was 91% and the residual activity [18] was 100%. For the same compound, the residual activity [19] was 51%, the residual activity [20] was 100% and the inhibition [21] was 20.4%. For the same compound, the residual activity [22] was 78%, the residual activity [23] was 84% and the residual activity [24] was 93%. It also gave a residual activity [25] of 93%, a residual activity [26] of 86% and a residual activity [27] of 100%. The residual activity [28] was 100%, the inhibition [29] was 1.65% and the residual activity [30] was 90%. It also gave a residual activity [31] of 100%, a residual activity [32] of 100% and a residual activity [33] of 100%. The residual activity [34] was 98%, the residual activity [35] was 100% and the residual activity [36] was 100%. For the same compound, the residual activity [37] was 100%, the residual activity [38] was 95% and the residual activity [39] was 100%. It also gave a residual activity [40] of 100%, a residual activity [41] of 100% and an inhibition [42] of -2.82%. For the same compound, the residual activity [43] was 95%, the residual activity [44] was 100% and the residual activity [45] was 100%.

From ChEMBL document CHEMBL4507280 (2021)
